For orientation: IC50 means the point on the concentration scale where inhibition reaches its midpoint.

The test system of series [1] is AGS cells. Put plainly: Cellular reduced glutathione (GSH) content of AGS cells. The format is cell-based, human. Particulars: 4 h; for GSH: post-confluent AGS, control 13.6 ± 0.7. The method, then: Untreated cells were used as controls. […] After incubation, the GSH content was determined using a colorimetric kit (BioAssays Systems, Hayward, CA, USA). Results are expressed as nanomol of soluble reduced sulfhydryls/10^6 cells.

Series [2] in a line: Cytotoxicity, neutral red uptake assay, MRC-5. The format is cell-based. Particulars: human, MRC-5 lung fibroblasts, confluent monolayer, confluent MRC-5, 24 h, read-out: IC50 ± SD, cytotoxicity MRC-5. The method, then:
(§1) Human lung fibroblasts MRC-5 (ATCC CCL-171) were grown in minimum essential Eagle medium (MEM) with Earles’s salts and 2 mM L-glutamine (Sigma-Aldrich Co.). Human epithelial gastric cells AGS (ATCC CRL-1739) were grown in Ham F-12 medium containing 1 mM L-glutamine. Both media were supplemented with 1.5 g/L sodium bicarbonate (Sigma-Aldrich Co.), 10% heat-inactivated fetal bovine serum (FBS), 100 IU/mL penicillin and 100 µg/mL streptomycin.Both cell lines were grown as monolayers in a humidified incubator with 5% CO2 in air at 37 °C. Culture media, antibiotics and FBS were obtained from Invitrogen Corp.
(§2) Cytotoxicity values were required as a reference to determine the working concentrations in the subsequent experiments. Briefly, confluent cultures of MRC-5 and AGS cells were treated during 24 h with medium containing the compounds at concentrations ranging from 0 up to 1,000 µM. The products were first dissolved in DMSO (1% final concentration) and then in the corresponding culture medium supplemented with 2% FBS. Untreated cells were used as controls. Cell viability was determined at the end of the incubation by means of the neutral red uptake (NRU) assay. Lansoprazole (Sigma-Aldrich Co., min. 98% by TLC) was used as reference compound.

The test system of series [3] is HCl-EtOH-induced gastric lesions. The arrangement: method as in PMID 21996716. To be noted: mice, orally, single dose of 5 mg/kg; cited from earlier work.
Series [4] has as its system AGS cells. Put plainly: Prostaglandin E2 (PGE2) content of AGS cells. The format is cell-based, human. Particulars: 1 h; for PGE2: post-confluent AGS, control 52 ± 5. The method, then:
One day after confluence, AGS cells were treated for 1 h with the compounds at 1/2 and 1/4 of the respective IC50 values. A control with medium only was included. Indomethacin (100 μM) was used as standard inhibitor of prostaglandin synthesis (Sigma-Aldrich Co., min. 99% by TLC). After incubation, PGE2 content was determined by means of a specific enzyme immunoassay kit (R & D Systems KGE004B, Minneapolis, MN, USA) and values were calculated according to the manufacturer instructions. Results are expressed as pg/well.

Series [5] in a line: Cytotoxicity, neutral red uptake assay, AGS. The format is cell-based. To be noted: human, AGS gastric epithelial cells, confluent monolayer, read-out: IC50 ± SD, cytotoxicity AGS. The method, then:
as §1, §2

Series [6] concerns human erythrocyte membranes. Put plainly: Inhibition of lipoperoxidation in erythrocyte membranes. The format is biochemical.
Series [7] has as its system AGS cells. Put plainly: Sodium taurocholate (NaT)-induced damage to AGS cells. The format is cell-based, human. To be noted: 60 min pre-treatment, then 10 mM NaT 30 min. The method, then:
The effect of sodium taurocholate (NaT) on cell viability was determined according to [15]. […] Then, 10 mM NaT was added to all wells for 30 min. Untreated cells were used as controls. […] After incubation, the NRU assay was carried out.

Series [8] concerns human erythrocyte membranes. Put plainly: Inhibition of lipoperoxidation in erythrocyte membranes. The format is biochemical. To be noted: at 100 µg/mL. How it is done:
The inhibition of lipid peroxidation was determined using human erythrocyte membranes. The compounds were tested at 100 µg/mL.

Turning to `C=C1CCC2[C@](C)(CCC[C@]2(C)C(=O)OC)[C@H]1CC[C@@H](C)CC(=O)OC1=C(CCC(C)C)C(=O)c2ccccc2C1=O` (some centres unmarked) [Compound 10, Dihydroprenyl lapachoyl junicedrate methyl ester], the GSH with AGS cells [1] (83 µM) is 13.4 ± 0.7 nmol/10^6 cells; in the series with AGS cells [1] (165 µM) it was 13.0 ± 0.7 nmol/10^6 cells. The IC50 at 24 h in series [2] was more than 1000 µM; in series [5] it was 659 ± 42 µM. The “gastroprotective effect in vivo” value in series [3] is given as “significant activity”. In the series on AGS cells [4] (Homo sapiens, AGS, 162 µM, read-out: increase in PGE2 content), the fold induction at 162 µM is 5.9. Moreover, the fold induction at 323 µM in the series with AGS cells [4] (Homo sapiens, AGS, 323 µM, read-out: increase in PGE2 content) was 8.9. Further, the PGE2 with AGS cells [4] (162 µM) is 306 ± 32 pg/mL; in the series with AGS cells [4] (323 µM) it was 465 ± 39 pg/mL. In addition, in series [6], the “IC50, inhibition of the lipoperoxidation” value was “IC50 99.4 ± 9.1 µg/mL”.

As for `COC(=O)[C@@]1(C)CCC[C@]2(C)C(CC[C@@H](C)CC(=O)OC3=C(CC=C(C)C)C(=O)c4ccccc4C3=O)=C(C)CCC12` (some centres unmarked) [Compound 20, Lapachoyl Δ8(9) junicedrate methyl ester], the activation at 40 µM in the series with AGS cells [1] (Homo sapiens, AGS, 40 µM, read-out: increase of GSH content compared to untreated controls) was determined as 19%. The activation at 80 µM with AGS cells [1] (Homo sapiens, AGS, 80 µM, read-out: increase of GSH content compared to untreated controls) was found to be 13%. Moreover, the figures for the GSH result with AGS cells [1] (40 µM) and in the series on AGS cells [1] (80 µM) were “* 16.2 ± 1.0 nmol/10^6 cells” and “* 15.4 ± 1.3 nmol/10^6 cells”, respectively. Moreover, the IC50 at 24 h in series [2] was 483 ± 31 µM; in series [5], 321 ± 24 µM. The “gastroprotective effect in vivo” value in series [3] is “active”. Moreover, in series [6], the “IC50, inhibition of the lipoperoxidation” value is listed as “IC50 58.1 ± 4.1 µg/mL”.

As to `CC1=C(CC[C@@H](C)CC(=O)OC2=C(CCC(C)C)C(=O)c3ccccc3C2=O)[C@@]2(C)CCC[C@](C)(C(=O)O)C2CC1` (some centres unmarked) [Compound 21, Dihydroprenyl lapachoyl Δ8(9) junicedrate], the results for the “reduction in cell viability, NaT-induced damage” value in the series on AGS cells [7] (35 µM), in the series with AGS cells [7] (70 µM) and with AGS cells [7] (139 µM) were 25%, 27% and 30%, respectively. Moreover, the activation at 70 µM with AGS cells [1] (Homo sapiens, AGS, 70 µM, read-out: increase of GSH content compared to untreated controls) was 33%. For the same compound, the GSH in the series on AGS cells [1] (35 µM) was 13.3 ± 0.7 nmol/10^6 cells; in the series with AGS cells [1] (70 µM) it was “* 18.1 ± 1.1 nmol/10^6 cells”. Also, the IC50 at 24 h was 601 ± 26 µM in series [2] and 278 ± 14 µM in series [5]. In series [3], the “gastroprotective effect in vivo” value is “significant activity”. In the series with AGS cells [4] (Homo sapiens, AGS, 85 µM, read-out: increase in PGE2 content), the fold induction at 85 µM was determined as 3.1. Moreover, in the series with AGS cells [4] (85 µM), the PGE2 amounted to 162 ± 18 pg/mL.

As to `COC(=O)[C@@]1(C)CCC[C@]2(C)C(CC[C@@H](C)CC(=O)OC3=C(CCC(C)C)C(=O)c4ccccc4C3=O)=C(C)CCC12` (some centres unmarked) [Compound 22, Dihydroprenyl lapachoyl Δ8(9) junicedrate methyl ester], the “% Inhibition of the lipoperoxidation” value in series [8] is on record as 46%. For the same compound, the values for the GSH with AGS cells [1] (43 µM) and in the series on AGS cells [1] (85 µM) were 13.6 ± 0.9 nmol/10^6 cells and 14.2 ± 0.6 nmol/10^6 cells, respectively. Besides, the values for the IC50 at 24 h in series [2] and in series [5] were 848 ± 51 µM and 340 ± 20 µM, respectively. In series [3], the “gastroprotective effect in vivo” value is listed as “significant activity”. In addition, the fold induction at 170 µM in the series with AGS cells [4] (Homo sapiens, AGS, 170 µM, read-out: increase in PGE2 content) was 2.2. In the series on AGS cells [4] (170 µM), this compound came in with a PGE2 of 114 ± 11 pg/mL.

Consider `C=C1CCC2[C@](C)(CCC[C@]2(C)C(=O)O)[C@H]1CC[C@@H](C)CC(=O)OC1=C(CCC(C)C)C(=O)c2ccccc2C1=O` (some centres unmarked) [Compound 9, Dihydroprenyl lapachol junicedrate], for which, in the series with AGS cells [1] (Homo sapiens, AGS, 6 µM, read-out: increase of GSH content compared to untreated controls), the activation at 6 µM was determined as 15%. Besides, the activation at 12 µM with AGS cells [1] (Homo sapiens, AGS, 12 µM, read-out: increase of GSH content compared to untreated controls) came to 16%. The results for the GSH entry with AGS cells [1] (6 µM) and in the series with AGS cells [1] (12 µM) were “* 15.6 ± 0.6 nmol/10^6 cells” and “* 15.8 ± 0.6 nmol/10^6 cells”, respectively. Further, the IC50 at 24 h in series [2] amounted to 449 ± 27 µM; in series [5], 49 ± 10 µM. Besides, in series [3], the “gastroprotective effect in vivo” value is recorded as “significant activity”. The fold induction at 12.5 µM with AGS cells [4] (Homo sapiens, AGS, 12.5 µM, read-out: increase in PGE2 content) came to 5.9. This compound also registered a PGE2 in the series on AGS cells [4] (12.5 µM) of 309 ± 29 pg/mL. Also, the “IC50, inhibition of the lipoperoxidation” value in series [6] is listed as “IC50 40.1 ± 5.3 µg/mL”.

In the case of `C=C1CCC2[C@](C)(CCC[C@]2(C)C(=O)OC)[C@H]1CC[C@@H](C)CC(=O)OC1=C(CC=C(C)C)C(=O)c2ccccc2C1=O` (some centres unmarked) [Compound 8, Lapachoyl junicedrate methyl ester], in the series with AGS cells [1] (Homo sapiens, AGS, 125 µM, read-out: increase of GSH content compared to untreated controls), the activation at 125 µM stood at 19%. Besides, the activation at 250 µM with AGS cells [1] (Homo sapiens, AGS, 250 µM, read-out: increase of GSH content compared to untreated controls) stood at 24%. In addition, the GSH result was “* 16.2 ± 0.6 nmol/10^6 cells” in the series with AGS cells [1] (125 µM) and “* 16.8 ± 0.9 nmol/10^6 cells” with AGS cells [1] (250 µM). For the same compound, the half-inhibitory concentration (IC50) at 24 h in series [2] and in series [5] was more than 1000 µM each time. The “gastroprotective effect in vivo” value in series [3] is recorded as “active”. Moreover, in the series with AGS cells [4] (Homo sapiens, AGS, 250 µM, read-out: increase in PGE2 content), the fold induction at 250 µM stood at 5.2. Also, in the series on AGS cells [4] (Homo sapiens, AGS, 500 µM, read-out: increase in PGE2 content), the fold induction at 500 µM came out at 15.2. The PGE2 with AGS cells [4] (250 µM) is listed as 272 ± 30 pg/mL; in the series on AGS cells [4] (500 µM), 787 ± 56 pg/mL. Further, in series [6], the “IC50, inhibition of the lipoperoxidation” value is “IC50 81.4 ± 11.0 µg/mL”.

The values above are taken from PMC6270338, “Diterpenylquinone Hybrids: Synthesis and Assessment of Gastroprotective Mechanisms of Action in Human Cells” (Molecules, 2013).
